According to EP3641735B1, “PHARMACEUTICAL TABLET COMPOSITION COMPRISING BILASTINE FORM 3 AND A WATER-SOLUBLE FILLER” (Alfred E. Tiefenbacher (GmbH & Co. KG), priority 2017, dated 2019):

Legend:
[1] = neat forms; 1 month at 25°C/60%RH and at 40°C/75%RH; cited from earlier work
[2] = Polymorphic analysis of API by XRD before and after micronisation (jet milling); type: physicochemical
Excerpt: For example, two from five batches of micronized API have shown the contamination of form 2 with form 3 and dihydrate form A.

| Structure (SMILES) | polymorphic stability on storage [1] | polymorphic form of API after micronisation (XRD) ([2]; listed as polymorphic form 2) | polymorphic form of API after micronisation (XRD) ([2]; listed as Bilastine form 3) |
| --- | --- | --- | --- |
| CCOCCn1c(C2CCN(CCc3ccc(C(C)(C)C(=O)O)cc3)CC2)nc2ccccc21 [Alpha, 2-[4-(2-(4-(1-(2-ethoxyethyl)-1H-benzimidazol-2-yl)piperidin-1-yl)ethyl)phenyl]-2-methylpropionic acid] | stable on storage | – | – |
| CCOCCn1c(C2CCN(CCc3ccc(C(C)(C)C(=O)O)cc3)CC2)nc2ccccc21 [Eta, 2-[4-(2-(4-(1-(2-ethoxyethyl)-1H-benzimidazol-2-yl)piperidin-1-yl)ethyl)phenyl]-2-methylpropionic acid] | stable on storage | – | – |
| CCOCCn1c(C2CCN(CCc3ccc(C(C)(C)C(=O)O)cc3)CC2)nc2ccccc21 [form 1, 2-[4-(2-(4-(1-(2-ethoxyethyl)-1H-benzimidazol-2-yl)piperidin-1-yl)ethyl)phenyl]-2-methylpropionic acid] | stable on storage | – | – |
| CCOCCn1c(C2CCN(CCc3ccc(C(C)(C)C(=O)O)cc3)CC2)nc2ccccc21 [form 2, 2-[4-(2-(4-(1-(2-ethoxyethyl)-1H-benzimidazol-2-yl)piperidin-1-yl)ethyl)phenyl]-2-methylpropionic acid] | stable on storage | presence of form 3 and dihydrate form A as polymorphic impurities | – |
| CCOCCn1c(C2CCN(CCc3ccc(C(C)(C)C(=O)O)cc3)CC2)nc2ccccc21 [form 3, 2-[4-(2-(4-(1-(2-ethoxyethyl)-1H-benzimidazol-2-yl)piperidin-1-yl)ethyl)phenyl]-2-methylpropionic acid] | converted partially into the form 1 | – | remains in the polymorphic form 3 without changes |
